Results: patent US20080051457A1, “Optically Active Phthalamide Derivative, Agricultural or Horticultural Insecticide, and Method of Using the Same” (priority 2004, published 2008)

System: not listed separately
Test: logP (pH2.3), physical properties of Tables 1 to 3
Format: physicochemical
Settings: not given
From the text: However, the present invention is not limited to these compounds. In the tables, the term “physical properties” means a melting point or logp. The symbol “Me” represents a methyl group, “Et” represents an ethyl group, “Pr” represents a propyl group, “-n” represents normal, and “-i” represents iso.

| SMILES | Physical properties logP(pH2.3) |
| --- | --- |
| CSC[C@H](CC(C)C)NC(=O)c1c(Br)cccc1C(=O)Nc1ccc(C(F)(C(F)(F)F)C(F)(F)F)cc1C [Compound 1-360] | 5.16 |
| Cc1cc(C(F)(C(F)(F)F)C(F)(F)F)ccc1NC(=O)c1cccc(Br)c1C(=O)N[C@@H](CC(C)C)C[S+](C)[O-] (some centres unmarked) [Compound 1-361] | 3.30 |
| Cc1cc(C(F)(C(F)(F)F)C(F)(F)F)ccc1NC(=O)c1cccc(Br)c1C(=O)N[C@@H](CC(C)C)CS(C)(=O)=O [Compound 1-362] | 3.82 |
| CSC[C@H](CC(C)C)NC(=O)c1c(I)cccc1C(=O)Nc1ccc(C(F)(C(F)(F)F)C(F)(F)F)cc1C [Compound 1-363] | 5.24 |
| Cc1cc(C(F)(C(F)(F)F)C(F)(F)F)ccc1NC(=O)c1cccc(I)c1C(=O)N[C@@H](CC(C)C)C[S+](C)[O-] (some centres unmarked) [Compound 1-364] | 3.39 |
| Cc1cc(C(F)(C(F)(F)F)C(F)(F)F)ccc1NC(=O)c1cccc(I)c1C(=O)N[C@@H](CC(C)C)CS(C)(=O)=O [Compound 1-365] | 3.87 |

System: Diamond Back Moth (Plutella xylostella)
Test: Test Example 1: insecticidal activity on diamond back moth, cabbage leaf disc dip
Format: in vivo
Settings: foliar, 192 h, third instar larvae, eight days after the inoculation, read-out: insecticidal activity judged from mortality
From the text: (§1) A cabbage leaf disc (variety: Shikidori) cut into 7 cm-diameter was dipped for about 30 seconds into a chemical solution prepared by diluting a preparation containing each compound listed in Tables 1 and 2 as an active ingredient to adjust the concentration to 50 ppm. After dried, it was put into a plastic Petri dish with a diameter of 9 cm and inoculated with ten of the third instar larvae of diamond back moths. Eight days after the inoculation, the dead and alive larvae were counted. The mortality was calculated according to the following equation and the insecticidal activity was judged according to the criterion shown below. The test was carried out with three replications under the condition of 25° C., 50-60% RH and 16L-8D photoperiod. [formula]

| SMILES | mortality at 50 ppm [%] |
| --- | --- |
| CSC[C@H](C)NC(=O)c1c(I)cccc1C(=O)Nc1ccc(OC(F)(F)F)cc1C [Compound 1-42, (S)-3-iodo-N^1-(2-methyl-4-trifluoromethoxyphenyl)-N^2-(1-methyl-2-methylthioethyl)phthalamide] | 100 |
| Cc1cc(OC(F)(F)F)ccc1NC(=O)c1cccc(I)c1C(=O)N[C@@H](C)CS(C)(=O)=O [Compound 1-44, (S)-3-iodo-N′-(2-methyl-4-trifluoromethoxyphenyl)-N^2— (1-methyl-2-methylsulfonylethyl)phthalamide] | 100 |

System: Common Cutworm (Spodoptera litura)
Test: Test Example 2: insecticidal activity on common cutworm, cabbage leaf disc dip
Format: in vivo
Settings: foliar, 192 h, second instar larvae, eight days after the inoculation, read-out: insecticidal activity judged from mortality
From the text: as §1, with “second” for “third”, “common cutworm.” for “diamond back moths.”, “calculated” for “calculated according to the following equation”, “in” for “according to”, “same manner as in Test Example 1.” for “criterion shown below.”, “photoperiod.” for “photoperiod. [formula]”

| SMILES | mortality at 50 ppm [%] |
| --- | --- |
| CSC[C@H](C)NC(=O)c1c(I)cccc1C(=O)Nc1ccc(OC(F)(F)F)cc1C [Compound 1-42, (S)-3-iodo-N^1-(2-methyl-4-trifluoromethoxyphenyl)-N^2-(1-methyl-2-methylthioethyl)phthalamide] | 100 |
| Cc1cc(OC(F)(F)F)ccc1NC(=O)c1cccc(I)c1C(=O)N[C@@H](C)CS(C)(=O)=O [Compound 1-44, (S)-3-iodo-N′-(2-methyl-4-trifluoromethoxyphenyl)-N^2— (1-methyl-2-methylsulfonylethyl)phthalamide] | 100 |

System: Common White (Pieris Rapae)
Test: Comparative Test 2: control of common white on cabbage by prick-in-hole application at transplanting
Format: in vivo
Settings: Dosage 10 mgAI/plant, 27 days after the transplanting
Experimental: An agent containing, as an active ingredient (AI), each of the compounds shown in the table and a comparative compound 1 (the compound with Compound No. 216 described in JP-A-2001-131141), was put into a prick-in-hole on the ground, and then cabbage seedlings (Variety: YR Seitoku) transplanted onto the treated hole (at the end of April). 27 days after the transplanting, the number of larvae of common white was counted. The control value was calculated according to the expression indicated below, and it was then evaluated in accordance with the criterion noted in Comparative test 1 above. One test group consisted of 20 cabbage loaves. [formula]

| SMILES | Evaluation of control value (27 days later) |
| --- | --- |
| Cc1cc(C(F)(C(F)(F)F)C(F)(F)F)ccc1NC(=O)c1cccc(I)c1C(=O)N[C@@H](C)C[S+](C)[O-] (some centres unmarked) [Compound 1-4] | 10 (Mortality 91%-100%) |
| Cc1cc(C(F)(C(F)(F)F)C(F)(F)F)ccc1NC(=O)c1cccc(I)c1C(=O)N[C@@H](C)CS(C)(=O)=O [Compound 1-5] | 10 (Mortality 91%-100%) |
| Cc1cc(C(F)(C(F)(F)F)C(F)(F)F)ccc1NC(=O)c1cccc(Br)c1C(=O)N[C@@H](C)CS(C)(=O)=O [Compound 1-74] | 10 (Mortality 91%-100%) |
| Cc1cc(C(F)(C(F)(F)F)C(F)(F)F)ccc1NC(=O)c1cccc(Cl)c1C(=O)N[C@@H](C)CS(C)(=O)=O [Compound 1-77] | 10 (Mortality 91%-100%) |
